Numbers after ± are expanded uncertainties.
Assay: Boiling temperature at pressure P
Conditions: 101.3 kPa; Liquid; Ebulliometric method (Recirculating still)

Structure (SMILES) | Boiling temperature at pressure P [°C]
CCOCCO [2-ethoxyethan-1-ol] | 135.04 ± 0.71
CCCCOC(C)=O [butyl ethanoate] | 126.11 ± 0.71
CC(C)OC(C)C [diisopropyl ether] | 68.62 ± 0.71
CC(C)O [propan-2-ol] | 82.12 ± 0.71
